Assay results from ChEMBL document CHEMBL1127610, “Synthesis and atypical antipsychotic profile of some 2-(2-piperidinoethyl)benzocycloalkanones as analogues of butyrophenone” (J Med Chem, 1994).

What was measured:
D(1A) dopamine receptor = D(1A) dopamine receptor (Rattus norvegicus, UniProt P18901); experiment: Inhibition of [3H]-SCH- 23390 binding to dopamine receptor D1 rat striatal membrane
[1] = biological target: 5-hydroxytryptamine receptor 2A (Rattus norvegicus, UniProt P14842); experiment: Inhibition of [3H]ketanserin binding to 5-hydroxytryptamine 2A receptor rat frontal cortex membrane; type: tissue-based
Chain of 5-hydroxytryptamine receptor 2A (P14842 whole entry): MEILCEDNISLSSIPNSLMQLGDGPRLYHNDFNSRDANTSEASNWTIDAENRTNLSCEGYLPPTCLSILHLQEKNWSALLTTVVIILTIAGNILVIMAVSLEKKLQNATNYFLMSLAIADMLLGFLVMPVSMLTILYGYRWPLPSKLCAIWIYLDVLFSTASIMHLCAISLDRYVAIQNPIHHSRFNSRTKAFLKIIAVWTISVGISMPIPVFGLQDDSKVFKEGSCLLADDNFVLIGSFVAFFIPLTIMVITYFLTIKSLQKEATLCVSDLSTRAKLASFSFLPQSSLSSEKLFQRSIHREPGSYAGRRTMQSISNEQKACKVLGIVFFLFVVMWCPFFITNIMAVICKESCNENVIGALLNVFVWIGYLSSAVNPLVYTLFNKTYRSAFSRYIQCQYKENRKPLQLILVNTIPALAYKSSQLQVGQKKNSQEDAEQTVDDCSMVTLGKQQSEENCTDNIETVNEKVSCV

Rattus norvegicus = organism: Rattus norvegicus; experiment: Value was obtained against serotonin-induced (5-HT2A) contractions in rat aorta rings; conditions: read-out: pA2 (converted)
D(2) dopamine receptor = D(2) dopamine receptor (Rattus norvegicus, UniProt P61169); experiment: Inhibition of [3H]-spiperone […] binding to dopamine receptor D2 rat striatal membrane
Chain of D(2) dopamine receptor (P61169 whole entry): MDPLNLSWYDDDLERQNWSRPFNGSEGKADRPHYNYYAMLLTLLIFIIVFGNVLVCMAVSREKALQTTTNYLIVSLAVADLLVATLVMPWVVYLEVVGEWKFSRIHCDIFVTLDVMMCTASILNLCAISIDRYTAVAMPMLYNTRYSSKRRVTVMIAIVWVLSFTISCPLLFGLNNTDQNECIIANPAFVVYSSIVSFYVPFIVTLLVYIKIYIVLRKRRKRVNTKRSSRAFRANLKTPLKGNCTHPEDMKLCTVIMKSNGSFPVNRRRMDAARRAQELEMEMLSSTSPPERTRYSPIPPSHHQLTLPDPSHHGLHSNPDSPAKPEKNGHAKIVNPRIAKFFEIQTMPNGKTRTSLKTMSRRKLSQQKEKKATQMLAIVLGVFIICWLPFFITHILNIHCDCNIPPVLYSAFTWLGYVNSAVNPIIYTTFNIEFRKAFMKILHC

Chain of D(1A) dopamine receptor (P18901 whole entry): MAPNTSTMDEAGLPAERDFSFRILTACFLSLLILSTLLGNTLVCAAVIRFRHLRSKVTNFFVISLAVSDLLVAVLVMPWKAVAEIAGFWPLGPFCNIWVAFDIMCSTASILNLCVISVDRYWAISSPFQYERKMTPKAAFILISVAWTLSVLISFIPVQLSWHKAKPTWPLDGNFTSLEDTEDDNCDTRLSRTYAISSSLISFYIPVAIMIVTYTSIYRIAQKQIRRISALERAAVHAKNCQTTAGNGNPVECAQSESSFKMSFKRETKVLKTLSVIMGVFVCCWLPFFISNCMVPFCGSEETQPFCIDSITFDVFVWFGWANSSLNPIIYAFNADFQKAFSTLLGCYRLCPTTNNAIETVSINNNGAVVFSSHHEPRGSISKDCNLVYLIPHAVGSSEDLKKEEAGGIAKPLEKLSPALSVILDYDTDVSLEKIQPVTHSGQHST

Compound | Ki (D(1A) dopamine receptor) [nM] | Ki [1] [nM] | Kb (Rattus norvegicus) [nM] | Ki (D(2) dopamine receptor) [nM]
O=C(c1ccc(F)cc1)C1CCN(CCC2CCc3ccccc3C2=O)CC1 (stereo not drawn) | 1550 | 7.76 | 35.5 | –
O=C(c1ccc(F)cc1)C1CCN(CCC2CCCc3ccccc3C2=O)CC1 (stereo not drawn) | 1290 | 12.9 | 178 | –
O=C(c1ccc(F)cc1)C1CCN(CCC2Cc3cc(F)ccc3C2=O)CC1 (stereo not drawn) | 1100 | 3.8 | 7.59 | 47.9
O=C(c1ccc(F)cc1)C1CCN(CCC2Cc3ccccc3C2=O)CC1 (stereo not drawn) | 2820 | 2.51 | 7.59 | –
